According to the supplement of paper PMC10307832:

How the values were obtained:
Assay in all cases: relative viability (nuclei count vs DMSO), 5 days (fraction); higher = more cells survive
Ruboxistaurin = compound: CN(C)C[C@@H]1CCn2cc(c3ccccc32)C2=C(C(=O)NC2=O)c2cn(c3ccccc23)CCO1 [Ruboxistaurin]
Outline: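 After an overnight hold at 37 °C, lung cancer cell lines in 1536-well plates were pinned with five library-drug doses (not always all listed), each √10 from the next, on vehicle-anchored plates. The cells stayed 5 days without fresh medium, then a one-step fix, permeabilisation and Hoechst stain preceded 4× imaging and MetaXpress nuclear counts. A plate passed only with control CV under 25% and at least one doubling. Viability is the median, over plates, of treated-well nuclei relative to vehicle-well nuclei.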

[1] = compound: CN(C)C[C@@H]1CCn2cc(c3ccccc32)C2=C(C(=O)NC2=O)c2cn(c3ccccc23)CCO1 [Ruboxistaurin] + C[C@@H](Oc1cc(-c2cnn(C3CCNCC3)c2)cnc1N)c1c(Cl)ccc(F)c1Cl [Crizotinib] (partner 1 µM)
Outline: (§1)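 One day after seeding in 1536-well plates, lung cancer cell lines were dosed by pin tool. Dosing was either single-drug or a fixed anchor-drug dose plus five library-drug doses (not always all listed) in √10 steps. After 5 days, nuclei were stained in one fix-and-stain step and counted on 4× images, and relative viability is the nuclei count of treated wells over that of vehicle wells, given as the median of duplicate plates.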

[2] = compound: CN(C)C[C@@H]1CCn2cc(c3ccccc32)C2=C(C(=O)NC2=O)c2cn(c3ccccc23)CCO1 [Ruboxistaurin] + C[C@]1(O)C[C@@H](c2nc(-c3ccc4ccc(-c5ccccc5)nc4c3)c3c(N)nccn32)C1 [Linsitinib] (partner 1 µM)
Outline: as §1

[3] = compound: CN(C)C[C@@H]1CCn2cc(c3ccccc32)C2=C(C(=O)NC2=O)c2cn(c3ccccc23)CCO1 [Ruboxistaurin] + N=C(N)NC(=N)NCCc1ccccc1 [Phenformin] (partner 250 µM)
Outline: as §1

[4] = compound: CN(C)C[C@@H]1CCn2cc(c3ccccc32)C2=C(C(=O)NC2=O)c2cn(c3ccccc23)CCO1 [Ruboxistaurin] + COc1cc2c(Oc3ccc(NC(=O)C4(C(=O)Nc5ccc(F)cc5)CC4)cc3F)ccnc2cc1OCCCN1CCOCC1 [Foretinib] (partner 0.25 µM)
Outline: as §1

Cell Line	relative viability (Ruboxistaurin; 0.08 µM)	relative viability (Ruboxistaurin; 0.8 µM)	relative viability (Ruboxistaurin; 2.53 µM)	relative viability (Ruboxistaurin; 8 µM)	relative viability ([1]; first compound 0.08 µM)	relative viability ([1]; first compound 0.8 µM)	relative viability ([1]; first compound 2.53 µM)	relative viability ([1]; first compound 8 µM)	relative viability ([2]; first compound 0.08 µM)	relative viability ([2]; first compound 0.8 µM)	relative viability ([2]; first compound 2.53 µM)	relative viability ([2]; first compound 8 µM)	relative viability ([3]; first compound 0.08 µM)	relative viability ([3]; first compound 0.8 µM)	relative viability ([3]; first compound 2.53 µM)	relative viability ([3]; first compound 8 µM)	relative viability ([4]; first compound 0.08 µM)	relative viability ([4]; first compound 0.8 µM)	relative viability ([4]; first compound 2.53 µM)	relative viability ([4]; first compound 8 µM)
NCI-H1915	0.984	0.958	0.998	0.962	0.892	0.829	0.855	0.901	1.12	1.04	1.03	1.07	0.35	0.349	0.363	0.376	1.05	1.03	1.02	0.899
PC-14	1.17	0.924	1.01	0.989	0.932	0.821	0.958	0.929	1.02	0.914	0.936	0.914	0.675	0.568	0.536	0.556	1.01	0.87	1	0.984
SK-LU-1	1.22	0.969	1.03	1.08	1.03	0.734	0.869	0.583	1.14	0.975	0.991	0.854	0.61	0.495	0.628	0.526	0.93	0.809	0.772	0.683
NCI-H1437	1	0.914	0.993	1.07	0.984	0.829	0.958	1.08	1.01	0.941	1.17	0.746	0.328	0.278	0.298	0.322	1.29	1.21	1.37	1.38
NCI-H1734	0.989	0.832	1.04	0.816	0.719	0.514	0.605	0.66	0.964	0.815	0.806	0.666	0.495	0.342	0.406	0.323	0.852	0.783	0.922	0.683
LK-2	0.952	1	1.12	0.833	0.249	0.242	0.278	0.257	0.493	0.589	0.717	0.261	0.476	0.38	0.379	0.225	1.32	0.962	0.927	0.892
HCC-15	1.06	0.953	1.07	1.04	0.815	0.794	0.754	0.845	0.841	0.834	0.852	0.776	0.513	0.46	0.486	0.504	1.1	0.927	1.12	1.09
HCC-366	0.989	0.95	1.02	1.05	0.58	0.518	0.605	0.536	0.691	0.526	0.68	0.33	0.666	0.572	0.629	0.664	1.08	0.919	0.882	0.874
NCI-H650	1.19	0.864	0.98	1.02	0.785	0.775	0.733	0.729	0.94	0.799	1.06	0.801	0.51	0.452	0.488	0.464	1.11	1.01	1.06	1.2
NCI-H2347	1.07	0.976	1.08	1.08	0.725	0.581	0.568	0.651	0.943	0.902	0.92	0.984	0.557	0.382	0.488	0.367	0.951	0.798	1.05	0.763
LXF-289	1.02	0.999	0.991	1.06	0.826	0.758	0.826	0.951	0.925	0.951	0.966	1.05	0.514	0.509	0.488	0.594	1.01	0.895	0.966	1.04
BEN	1.05	0.902	0.877	0.857	0.92	0.818	0.894	0.658	1.04	0.883	0.9	0.721	0.26	0.292	0.248	0.245	0.725	0.722	0.712	0.49
NCI-H2023	1.02	0.788	1.08	0.735	0.691	0.588	0.565	0.503	0.721	0.53	0.616	0.492	0.448	0.388	0.445	0.383	1.22		0.787	0.693
NCI-H661	1.03	0.962	1.05	1.04	0.991	0.924	1.08	1.08	0.809	0.538	0.718	0.545	0.253	0.268	0.297	0.29	1.05	0.996	1.07	1.07
NCI-H1355	1.05	0.882	0.971	0.944	1.08	1	1.04	1	0.904	0.753	0.728	0.658	0.472	0.39	0.468	0.451	1.02	0.862	1.02	0.82
COR-L 105	1.08	0.803	0.949	0.782	0.8	0.828	0.868	0.664	1.17	0.75	0.78	0.696	0.599	0.436	0.446	0.4	1.37	0.826	1.1	0.87
NCI-H2228	0.94	0.89	1.01	0.93	0.453	0.427	0.316	0.3	0.847	0.481	0.681	0.751	0.345	0.256	0.419	0.269	0.906	0.772	0.86	0.729
NCI-H838	1.03	0.839	0.964	0.923	0.899	0.729	1.03	0.817	1.09	0.91	1.02	0.744	0.628	0.467	0.592	0.454	1.13	0.923	1.19	0.998
EMC-BAC-2	1.05	0.957	0.95	0.84	0.741	0.713	0.715	0.68	0.885	0.775	0.773	0.739	0.601	0.469	0.505	0.438	1.03	0.872	1.03	0.51
LU99A	0.956	0.858	1.04	0.852	0.507	0.506	0.503	0.506	0.614	0.455	0.463	0.33	0.759	0.625	0.872	0.787	0.802	0.774	0.778	0.751
PC-3 [JPC-3]	1.12	0.97	1.11	1.09	1.03	0.958	1	1.02	0.974	0.91	0.915	1	0.471	0.47	0.492	0.517	1.06	1.03	1.02	1.09
NCI-H596	0.979	0.864	1.02	0.867	1.03	0.981	1.03	0.795	1.14	1.01	1.08	0.857	0.844	0.77	0.841	0.722	0.817	0.671	0.766	0.679
LCLC-97TM1	0.905	0.948	1.08	0.906	0.358		0.474	0.404	0.169		0.166	0.151	0.466	0.383	0.475	0.466	0.863	0.891	0.923	0.825
NCI-H1993	1.18	0.756	0.908	0.696	0.88	0.726	0.944	0.708	0.63	0.695	0.62	0.703	0.529	0.518	0.525	0.568	0.941	0.623	0.905	0.691
HARA	0.978	0.918	0.976	0.929	1.07	0.919	1.18	1.03	1.15	0.922	1.08	0.657	0.493	0.404	0.535	0.475	0.842	0.865	0.993	0.813
NCI-H460	1.01	0.98	1.04	1.02	0.772	0.822	1.02	0.537	0.919	0.6	0.855	0.349	0.535	0.497	0.533	0.485	1.03	0.904	1.08	0.996
EKVX	1.06	0.928	1.02	0.884	1.09	0.989	0.983	0.895	1.08	0.948	0.971	0.931	0.249	0.221	0.234	0.26	0.898	0.694	0.848	0.738
